Reference: patent US12357603B2, “Acyl sulfonamides for treating cancer” (Bayer Aktiengesellschaft, priority 2019, dated 2025)

How the values were obtained:
[1] = molecular target: Recombinant human His-tagged Kat6a protein (amino acids 194-810) (Homo sapiens (Human), UniProt Q92794); experiment: Kat6a activity assay (TR-FRET, acetylation of biotinylated Histone-H4-derived peptide); type: biochemical; settings: 60 mins at 22° C., read-out: KAT6A-DPF/HAT domain IC50 [mol/l] (arithmetic mean)
How it was run: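 Sf9-expressed human His-Kat6a (aa 194-810) incubated 60 min at 22 °C with compounds (0.01-20 μM) in Tris pH 8 buffer containing 220 nM biotinylated H4 peptide (aa 1-24) and 600 nM acetyl-CoA. Acetyl-K8 detected by TR-FRET (665/620 nm ratio); IC50 by four-parameter fit versus DMSO controls.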

MDA-MB-436 cells = experiment: Proliferation assay MDA-MB-436, negative control cell line (Alamar Blue, 144 h); type: cell-based; settings: Homo sapiens, MDA-MB-436, 144 h, arithmetic mean
Description: Proliferation Assays for Compound Characterization
For compound characterization cell survival assays were routinely run in two cell lines. ZR-75-1 is a breast carcinoma cell line containing a focal KAT6A amplification and high KAT6A protein expression. Proliferation of this cell line is inhibited upon treatment with KAT6A inhibitors. As a negative control cell line MDA-MB-436 were used. These cells carry a […] deletion of the KAT6A gene, have a low KAT6A protein expression and are not growth inhibited upon treatment with KAT6A inhibitors.
For measurements cell lines were plated at the below indicated concentration per […] in 96-well plates in a humidified incubator at 37° C. and 5% CO2.
MDA-MB-436 (CLS, 300278; breast adenocarcinoma); 3000 cells per well; culture medium: DMEM/Ham's F12 (Biochrom #FG 4815) medium containing 2.5% FBS (Biochrom #S0615).
24 hours later, cells were treated with compounds (stock solution, 10 mM in DMSO) using the HP D300 Digital Dispenser in a concentration range of 2.0×10E-5 M to 2.0×10E-9 M in a single-dot curve with 9 dilutions and a DMSO concentration of 0.2%. Each sample was prepared as triplicate and rim wells were excluded. Plates were incubated at 37° C. and 5% CO2 for 144 h. Cell viability was measured by adding 10 μL of Alamar Blue Reagent (Invitrogen #DAL 1100) and plates were incubated for 2 h at 37° C. and 5% CO2. Fluorescence was measured at 590 nm wavelength with a Tecan Spark or Victor X3 MTP-Reader (PerkinElmer).

[2] = system: ESR1 transcription (luciferase signal in MVLN cells); experiment: Repression of ESR1 transcription, luciferase reporter in MVLN cells; type: cell-based; settings: Homo sapiens, MVLN, inhibition of luciferase signal in MVLN cells; arithmetic mean
How it was run: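 MVLN cells (constitutive ER, stably carrying a Vitellogenin A2 hormone-responsive element–luciferase reporter) treated in duplicate; luciferase read after 24 h. Cell density checked by Alamar Blue fluorescence (530/590 nm) after 2 h to exclude cell-loss effects.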

ZR-75-1 cells = experiment: Proliferation assay ZR-75-1 (Alamar Blue, 144 h); type: cell-based; settings: Homo sapiens, ZR-75-1, 144 h, arithmetic mean, read-out: ZR75-1 proliferation assay, EC50 [M] (arithmetic mean)
How it was run: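 Cells seeded at 3000/well in RPMI 1640 with 2.5% FBS and treated 24 h later across 2.0×10E-5 to 2.0×10E-9 M (9 dilutions, 0.2% DMSO, triplicate). After 144 h at 37 °C, 5% CO2, viability read by Alamar Blue fluorescence at 590 nm following 2 h reagent incubation.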

Recombinant human His-tagged Kat6a protein (amino acids 194-810), sequence (Q92794 194-810): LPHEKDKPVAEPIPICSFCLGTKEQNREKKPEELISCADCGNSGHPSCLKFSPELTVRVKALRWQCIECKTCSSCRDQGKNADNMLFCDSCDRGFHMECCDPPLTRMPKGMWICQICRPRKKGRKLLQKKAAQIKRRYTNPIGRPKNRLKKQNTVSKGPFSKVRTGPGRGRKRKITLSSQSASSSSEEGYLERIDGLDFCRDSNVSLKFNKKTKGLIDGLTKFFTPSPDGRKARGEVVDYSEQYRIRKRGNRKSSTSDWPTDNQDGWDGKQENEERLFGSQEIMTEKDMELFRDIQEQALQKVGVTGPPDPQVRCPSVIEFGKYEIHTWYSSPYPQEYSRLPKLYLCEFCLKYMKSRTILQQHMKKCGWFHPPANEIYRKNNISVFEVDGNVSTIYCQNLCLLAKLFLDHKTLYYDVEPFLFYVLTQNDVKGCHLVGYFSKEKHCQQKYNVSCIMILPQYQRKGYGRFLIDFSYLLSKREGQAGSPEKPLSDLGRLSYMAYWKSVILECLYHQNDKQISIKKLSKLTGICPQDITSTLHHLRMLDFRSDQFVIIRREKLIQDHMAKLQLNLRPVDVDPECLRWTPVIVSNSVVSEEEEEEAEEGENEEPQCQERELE

Structure (SMILES)	IC50 [1]	EC50 (MDA-MB-436 cells)	IC50 [2]	EC50 (ZR-75-1 cells)
CN(C)c1ccc2cc(C(=O)NS(=O)(=O)c3ccccc3-c3ccccc3)oc2c1F [Example 192, N-([1,1′-biphenyl]-2-ylsulfonyl)-6-(dimethylamino)-7-fluorobenzofuran-2-carboxamide]	2980 nM	> 20000 nM	16400 nM	> 2e-05 M
CCOc1nccc(C(F)(F)F)c1S(=O)(=O)NC(=O)c1cc2ccc(N(C)C)cc2o1 [Example 120, 6-(Dimethylamino)-N-[2-ethoxy-4-(trifluoromethyl)pyridine-3-sulfonyl]-1-benzofuran-2-carboxamide]	1850 nM	> 20000 nM	891 nM	4.57e-07 M
CN(C)c1ccc2cc(C(=O)NS(=O)(=O)c3c(Cl)cccc3C(F)(F)F)oc2c1 [Example 97, N-[2-Chloro-6-(trifluoromethyl)benzene-1-sulfonyl]-6-(dimethylamino)-1-benzofuran-2-carboxamide]	465 nM	> 20000 nM	571 nM	6.15e-07 M
Cc1ccc2cccc(S(=O)(=O)NC(=O)c3cc4cc(F)c(N(C)C)cc4o3)c2n1 [Example 197, 6-(Dimethylamino)-5-fluoro-N-((2-methylquinolin-8-yl)sulfonyl)benzofuran-2-carboxamide]	894 nM	> 20000 nM	1270 nM	2.84e-06 M
CCOc1ccc(NC(C)=O)cc1S(=O)(=O)NC(=O)c1cc2ccc(N(C)C)cc2o1 [Example 128, N-(5-Acetamido-2-ethoxybenzene-1-sulfonyl)-6-(dimethylamino)-1-benzofuran-2-carboxamide]	351 nM	> 20000 nM	7800 nM	1.49e-06 M
CN(C)c1ccc2cc(C(=O)NS(=O)(=O)c3ccc(Br)cc3OC(F)(F)F)oc2c1 [Example 118, N-[4-Bromo-2-(trifluoromethoxy)benzene-1-sulfonyl]-6-(dimethylamino)-1-benzofuran-2-carboxamide]	52.4 nM	> 20000 nM	555 nM	9.57e-07 M
CC(Oc1ccccc1S(=O)(=O)NC(=O)c1cc2ccc(N(C)C)cc2o1)C(F)(F)F (racemic) [Example 135, 6-(Dimethylamino)-N-(2-[-1,1,1-trifluoropropan-2-yl)oxy]benzene-1-sulfonyl)-1-benzofuran-2-carboxamide (rac)]	57.9 nM	> 20000 nM	68.6 nM	1.46e-07 M
CN(C)c1ccc2cc(C(=O)NS(=O)(=O)c3cc(Br)cnc3NC3CC3)oc2c1 [Example 146, N-[5-Bromo-2-(cyclopropylamino)pyridine-3-sulfonyl]-6-(dimethylamino)-1-benzofuran-2-carboxamide]	266 nM	> 20000 nM	5160 nM	3.73e-06 M
CN(C)c1ccc2cc(C(=O)NS(=O)(=O)c3ccc(Cl)cc3Cl)oc2c1 [Example 27, N-(2,4-Dichlorobenzene-1-sulfonyl)-6-(dimethylamino)-1-benzofuran-2-carboxamide]	134 nM	> 20000 nM	1750 nM	1.73e-06 M
CC(C)Nc1ncc(Br)cc1S(=O)(=O)NC(=O)c1cc2ccc(N(C)C)cc2o1 [Example 145, N-{5-Bromo-2-[(propan-2-yl)amino]pyridine-3-sulfonyl}-6-(dimethylamino)-1-benzofuran-2-carboxamide]	438 nM	> 20000 nM	6800 nM	7.2e-06 M
CC(C)Oc1ccc(C(C)(C)C)cc1S(=O)(=O)NC(=O)c1cc2ccc(N(C)C)cc2o1 [Example 183, N-((5-(tert-butyl)-2-isopropoxyphenyl)sulfonyl)-6-(dimethylamino)benzofuran-2-carboxamide]	15.4 nM	> 20000 nM	45.5 nM	7.53e-08 M
CN(C)c1cc2oc(C(=O)NS(=O)(=O)c3ccccc3-c3ccccc3)cc2cc1Br [Example 217, N-([1,1′-biphenyl]-2-sulfonyl)-5-bromo-6-(dimethylamino)-1-benzofuran-2-carboxamide]	5540 nM	> 20000 nM	> 20000 nM	8.13e-06 M
CCOc1ccccc1S(=O)(=O)NC(=O)c1cc2ccc(N(C)C)c(F)c2o1 [Example 191, 6-(Dimethylamino)-N-((2-ethoxyphenyl)sulfonyl)-7-fluorobenzofuran-2-carboxamide]	4700 nM	> 20000 nM	11200 nM	5.64e-06 M
Cc1cc(Cn2cccn2)cc(S(=O)(=O)NC(=O)c2cc3ccc(N(C)C)cc3o2)c1C [Example 100]	177 nM	> 20000 nM	974 nM	1.12e-06 M
COCCN(C)c1ccc2cc(C(=O)NS(=O)(=O)c3cccc4ccc(C)nc34)oc2c1 [Example 205, 6-[(2-Methoxyethyl)(methyl)amino]-N-(2-methylquinoline-8-sulfonyl)-1-benzofuran-2-carboxamide]	485 nM	7610 nM	2340 nM	2.17e-06 M
CN(C)c1ccc2cc(C(=O)NS(=O)(=O)c3ccccc3-c3ccccc3)oc2c1Br [Example 203, N-([1,1′-biphenyl]-2-sulfonyl)-7-bromo-6-(dimethylamino)-1-benzofuran-2-carboxamide]	8380 nM	> 20000 nM	> 20000 nM	> 2e-05 M
CCOc1ccccc1S(=O)(=O)NC(=O)c1cc2cc(C#N)c(N(C)C)cc2o1 [Example 204, 5-Cyano-6-(dimethylamino)-N-(2-ethoxybenzene-1-sulfonyl)-1-benzofuran-2-carboxamide]	2590 nM	> 20000 nM	5800 nM	6.4e-06 M
CCOc1ccccc1S(=O)(=O)NC(=O)c1cc2cc(Br)c(N(C)C)cc2o1 [Example 218, 5-Bromo-6-(dimethylamino)-N-(2-ethoxybenzene-1-sulfonyl)-1-benzofuran-2-carboxamide]	4730 nM	> 20000 nM	7900 nM	8.31e-06 M
CN(C)c1ccc2cc(C(=O)NS(=O)(=O)c3ccccc3OCCOCCOCCOCCNc3ccc([N+](=O)[O-])c4nonc34)oc2c1 [Example 168, 6-(Dimethylamino)-N-(2-{2-[2-(2-{2-[(7-nitro-2,1,3-benzoxadiazol-4-yl)amino]ethoxy}ethoxy)ethoxy]ethoxy}benzene-1-sulfonyl)-1-benzofuran-2-carboxamide]	128 nM	> 20000 nM	8600 nM	1.24e-05 M
Cc1ccc2cccc(S(=O)(=O)NC(=O)c3cc4ccc(N(C)C)c(F)c4o3)c2n1 [Example 190, 6-(Dimethylamino)-7-fluoro-N-((2-methylquinolin-8-yl)sulfonyl)benzofuran-2-carboxamide]	1400 nM	10400 nM	1930 nM	3.3e-06 M
CN(C)c1ccc2cc(C(=O)NS(=O)(=O)c3ccccc3)oc2c1 [Example 99, N-(benzenesulfonyl)-6-(dimethylamino)-1-benzofuran-2-carboxamide]	645 nM	> 20000 nM	672 nM	6.63e-07 M
CCc1ccc(Cn2cccn2)cc1S(=O)(=O)NC(=O)c1cc2ccc(N(C)C)cc2o1 [Example 102, 6-(Dimethylamino)-N-{2-ethyl-5-[(1H-pyrazol-1-yl)methyl]benzene-1-sulfonyl}-1-benzofuran-2-carboxamide]	489 nM	> 20000 nM	1470 nM	1.95e-06 M
